The test system of one experiment is Micrococcus luteus. Kind of experiment: Antimicrobial activity against Micrococcus luteus. Type of experiment: functional.
A further experiment relates to KB. Kind of experiment: Cytotoxicity against human KB cells. Type of experiment: functional, cell-based.
Another experiment has as its system L1210. Kind of experiment: Cytotoxicity against mouse L1210 cells. Type of experiment: functional, cell-based.

Active and inactive are the calls of the source. The rule behind the calls is not given here.

Regarding `CSc1c(Cc2nc(C(=O)[O-])cc3c2[nH]c2ccc(O)cc23)n(C)c[n+]1C`, the result with Micrococcus luteus was inactive.

`CSc1c(C(=O)c2nc(C(=O)[O-])cc3c2[nH]c2ccc(O)cc23)n(C)c[n+]1C`: the outcome with Micrococcus luteus was inactive. Take `CSc1c(Cc2nccc3c2[nH]c2ccc(O)cc23)n(C)c[n+]1C` [GESASHIDINE A]: the IC50 with KB and in the experiment with L1210 was > 10 µg/mL in each case. Moreover, it took 16.6 µg/mL to inhibit growth against Micrococcus luteus (MIC).

These data come from ChEMBL document CHEMBL1141758, “Gesashidine A, a beta-carboline alkaloid with an imidazole ring from a Thorectidae sponge” (J Nat Prod, 2005).
